How the values were obtained:
H460 cancer cells = assay: In vitro combination study with Compound 1, Cell Titer-Glo (ATP) cell viability, 72 h; type: cell-based; details: Table 5 drug combined with Compound 1; 72 h;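 note: Ten-by-ten dose matrices of both drugs alongside single-agent dilutions, luminescence read 72 hours after compound addition, percent activity per well versus vehicle (DMSO) plate controls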
Procedure: (§9) Each combination pair was evaluated in an individual 384-well plate which contained variable doses of both compounds as single agents, as well as two, ten-by-ten matrices (in duplicate) that contained mixtures of the two test compounds. In brief, compounds were added to the cell test plates 16 hours after cell plating and then assessed for viability 72 hours later. Continuous cultures of tumor cells were maintained under standard cell culturing conditions (i.e. in a humidified chamber set at 37° C., containing atmosphere 5% carbon dioxide). […] Seventy-two hours after compound addition, ATP levels were measured to assess cell viability. Plating densities were chosen to ensure optimal linear growth over the 72 hour period.
(§10) Compound dilution and compound delivery to the assay plates were done on HighRes Robotic System (HighRes Biosolutions, Woburn, Mass., USA) with Echo™ Liquid Handler (Labcyte, Sunnyvale, Calif., USA). […] Next, these were used for compound transfer into cell assay plates. All wells were back-filled to give a constant percentage of DMSO.
(§11) The final DMSO concentration was held constant in all wells across the plate and was maintained at less than 0.5%. […] Cells treated with vehicle (DMSO) in two rows, or single compound serial dilutions in one plate columns/row served as the untreated control and single compound controls, respectively.
(§12) Compound activity in A549, COLO205, H460, HCT116, SW48, SW620 cancer cell lines was assessed using Cell Titer-Glo® (Promega [Madison, Wis., USA]). After 72 hours incubation, the plates were treated as per package insert protocol for the Promega Luminescence ATP Detection Systems. Briefly, 25 μL of cell lysis/substrate solution (provided in kit form) was added to each well and the plate was incubated at room temperature for 10 minutes. Luminescence was measured using a PHERAstar multi-label counter (BMG Labtech [Ortenberg, Germany]) or LEADseeker (GE Healthcare Life Sciences [Piscataway, N.J., USA]).
(§13) Numerical luminescence values were analyzed to generate EC50 curves and evaluate synergy. Raw Data reader files were uploaded along with automation workfiles that defined the plate and well contents. Percent activities were calculated for each well versus plate controls.
(§14) Each plate representing a single drug combination was analyzed separately. First, the viability measurements were normalized by scaling the data so that the median of the negative controls was 0 and the median of the positive controls was 100.
(§15) For the combination analysis, a response surface model was used to describe the relationship between the normalized viability and the drug concentrations. The data were fit to the model by minimizing the residual sum of squares. Based on the fitted response surface, plots of constant viability, called isobolograms, were produced.
(§16) The Combination Index and Nonlinear Blending were used as measures of drug synergy. To calculate Combination Index the 50% isobologram (which is the dose contour that has 50% viability) was used. […] A standard procedure was created to produce a call in order to characterize the viability effects for each combination (synergy, additivity, subadditivity, or antagonism). If the Combination Index existed then these measures were used to make the call.

A549 cancer cells = assay: as above; type: cell-based; details: Table 5 drug combined with Compound 1; 72 h;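 note: Ten-by-ten dose matrices of the two agents in duplicate, compounds added 16 h post-plating, activity relative to DMSO vehicle wells, call reflects synergy evaluation from luminescence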
HCT116 cancer cells = assay: as above; type: cell-based; details: Table 5 drug combined with Compound 1; 72 h;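 note: combination call from 10×10 dose matrices in duplicate, graded by synergy, with percent activity per well relative to DMSO vehicle controls on the same plate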
Procedure: as §9, §10, §11, §12, §13, §14, §15, §16

[1] = system: PHTXM-35Es human primary esophagus cancer xenografts; assay: In vivo combination study, Patient Derived Xenograft; parameters: species or system mouse; details: for Result (combination with Compound 1, tumor growth): drug 10 mg/kg intravenously once weekly Days 1,8,15
Procedure: (§1) To investigate in vivo antitumor activity of Compound 1 in combination with other agents, tests using Cell Derived Xenograft (CDX), Patient Derived Xenograft (PDX) and Syngeneic mouse tumor isograft model were conducted. Cells or Patient Derived Tumors were inoculated by one method of the following two methods (Method A and B) as shown Table 7.
(§2) Method A; Cells were maintained in either immune deficient nude mice or immune competent mice by subcutaneous inoculation of tumor cells at various concentrations into respected mice. Method B: Patient Derived Tumor s were maintained in nude mice by subcutaneous inoculation of tumor pieces (approx. 2×2×2 mm) into nude mice. Mice with tumor size of approximately 50 mm^3 (e.g., 40-75 mm^3) for syngeneic mouse studies or 200 mm^3 (e.g., 110-270 mm^3) for xenograft studies were randomly assigned to dose groups on the day (Day 0) before start date of dosing.
(§3) Compound 1 (crystalline form I) was suspended in 0.5 w/v % methylcellulose and administered orally to mice. Antibodies which administered in the experiment were described in Table 8.
(§4) Tumor size was measured by caliper and tumor volume was estimated using the equation V=(LW^2)/2, where L and W are tumor length and width, respectively and reported in cubic millimeters.
(§5) These values were compared across treatment groups to assess whether the differences in the trends over time were statistically significant. To compare pairs of treatment groups, the following mixed-effects linear regression model was fit to the data using the maximum likelihood method:
(§6) For synergy analyses, the observed differences in the log tumor values were used to calculate AUC values for each animal. In instances when an animal in a treatment group was removed from the study, the last observed tumor value was carried forward through all subsequent time points. The AUC for the control, or vehicle, group was calculated using the predicted values from the pairwise models described above. We defined a measure of synergy as follows:
(§7) where Ak and Bk are the k^th animal in the individual treatment groups and ABk is the k^th animal in combination treatment group. AUCcd is the model-predicted AUC for the control group and was treated as a constant with no variability. The standard error of the synergy score was calculated as the square root of the sum of squared standard errors across groups A, B, and AB. The degrees of freedom were estimated using the Welch-Satterthwaite equation. A hypothesis test was performed to determine if the synergy score differed from 0. P values were calculated by dividing the synergy score by its standard error and tested against a t-distribution (two-tailed) with the above-calculated degrees of freedom.
(§8) The effect was classified into four different categories. It was considered synergistic if the synergy score was less than 0 and additive if the synergy score wasn't statistically different from 0. If the synergy score was greater than zero, but the mean AUC for the combination was lower than the lowest mean AUC among the two single agent treatments, then the combination was sub-additive. If the synergy score was greater than zero, and the mean AUC for the combination was greater than the mean AUC for at least one of the single agent treatments, then the combination was antagonistic.

PHTXM-90Es (Esophagus) = assay: as above; parameters: species or system mouse; details: PHTXM-90Es (220 mm^3), drug 10 mg/kg intravenously once weekly Days 1,8,15
Procedure: as §1, §2, §3, §4, §5, §6, §7, §8

[2] = system: PHTXM-79Es human primary esophagus cancer xenografts; assay: as above; parameters: species or system mouse; key to Result (combination with Compound 1, tumor growth): synergistic if the synergy score was less than 0; additive if the synergy score wasn't statistically different from 0; If the synergy score was greater than zero, but the mean AUC for the combination was lower than the lowest mean AUC among the two single agent treatments, then the combination was sub-additive; If the synergy score was greater than zero, and the mean AUC for the combination was greater than the mean AUC for at least one of the single agent treatments, then the combination was antagonistic; details: for Result (combination with Compound 1, tumor growth): PHTX-79Es (135 mm^3) FIG. 5A, drug 10 mg/kg intravenously once weekly Days 1,8,15
Procedure: as §1, §2, §3, §4, §5, §6, §7, §8

COLO205 cancer cells = assay: In vitro combination study with Compound 1, Cell Titer-Glo (ATP) cell viability, 72 h; type: cell-based, human; details: Table 5 drug combined with Compound 1; 72 h;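 note: Ten-by-ten dose matrices of both agents in duplicate plus single-agent dilutions, luminescent ATP read-out, percent activity per well relative to DMSO vehicle wells, synergy call from these matrices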
SW620 cancer cells = assay: as above; type: cell-based; details: Table 5 drug combined with Compound 1; 72 h;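 note: Ten-by-ten dose matrices of both drugs in 384-well plates, luminescent ATP read-out, synergy evaluated against single-agent and DMSO vehicle controls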
Procedure: as §9, §10, §11, §12, §13, §14, §15, §16

DU-145 (Prostate) = assay: In vivo combination study, Cell Derived Xenograft; parameters: species or system mouse; details: DU-145 (165 mm^3); Compound 1 60 mg/kg once daily Day 1-21; drug 10 mg/kg intravenously once weekly Days 1,8,15
Procedure: as §1
Method A; Cells were maintained in either immune deficient nude mice or immune competent mice by subcutaneous inoculation of tumor cells at various concentrations into respected mice. Method B: Patient Derived Tumor s were maintained in nude mice by subcutaneous inoculation of tumor pieces (approx. 2×2×2 mm) into nude mice. […]
Tumor size was measured by caliper and tumor volume was estimated using the equation V=(LW^2)/2, where L and W are tumor length and width, respectively and reported in cubic millimeters. […]
For synergy analyses, the observed differences in the log tumor values were used to calculate AUC values for each animal. […] The AUC for the control, or vehicle, group was calculated using the predicted values from the pairwise models described above. […]
where Ak and Bk are the k^th animal in the individual treatment groups and ABk is the k^th animal in combination treatment group. […] The standard error of the synergy score was calculated as the square root of the sum of squared standard errors across groups A, B, and AB. […]

[3] = Compound 1 40 mg/kg once daily Day 1-21
[4] = Compound 1 60 mg/kg once daily Day 1-21

Structure (SMILES): CC(=O)O[C@@]12CO[C@@H]1C[C@H](O)[C@@]1(C)C(=O)[C@H](O)C3=C(C)[C@@H](OC(=O)[C@H](O)[C@@H](NC(=O)OC(C)(C)C)c4ccccc4)C[C@@](O)([C@@H](OC(=O)c4ccccc4)[C@H]21)C3(C)C [Docetaxel]
- Call, anti-proliferative effect of combination with Compound 1, H460 (H460 cancer cells): Additivity (0.7 to 1.3)
- Call, anti-proliferative effect of combination with Compound 1, A549 (A549 cancer cells): Subadditivity (1.3 to 2)
- Call, anti-proliferative effect of combination with Compound 1, HCT116 (HCT116 cancer cells): Additivity (0.7 to 1.3)
- Result (combination with Compound 1, tumor growth) ([1]; PHTXM-35Es (150 mm^3) FIG. 4B, Compound 1 40 mg/kg once daily Day 1-21): Synergistic
- Result (combination with Compound 1, tumor growth) ([1]; PHTXM-35Es (150 mm^3) FIG. 4B, Compound 1 60 mg/kg once daily Day 1-21): Additive
- Result (combination with Compound 1, tumor growth) ([1]; PHTXM-35Es (190 mm^3), Compound 1 40 mg/kg once daily Day 1-21): Synergistic
- Result (combination with Compound 1, tumor growth) ([1]; PHTXM-35Es (190 mm^3), Compound 1 60 mg/kg once daily Day 1-21): Synergistic
- antitumor activity ([1]; combined with Compound 1, PHTXM-35Es human primary esophagus cancer xenografts, FIG. 4B): strong antitumor activity compared to either single treatment alone
- Result (combination with Compound 1, tumor growth) (PHTXM-90Es (Esophagus); [3]): Additive
- Result (combination with Compound 1, tumor growth) (PHTXM-90Es (Esophagus); [4]): Additive
- Result (combination with Compound 1, tumor growth) [2, 3]: Synergistic
- Result (combination with Compound 1, tumor growth) [2, 4]: additive
- antitumor activity ([2]; combined with Compound 1, PHTXM-79Es human primary esophagus cancer xenografts, FIG. 5A): strong antitumor activity compared to either single treatment alone
- Call, anti-proliferative effect of combination with Compound 1, COLO205 (COLO205 cancer cells): Additivity (0.7 to 1.3)
- Call, anti-proliferative effect of combination with Compound 1, SW620 (SW620 cancer cells): Synergy (0 to 0.7)
- Result (combination with Compound 1, tumor growth) (DU-145 (Prostate)): Additive

— patent publication US20220323443A1, “COMBINATION THERAPY FOR CANCER TREATMENT” (TAKEDA PHARMACEUTICAL COMPANY LIMITED, priority 2019, published 2022)
